Experimental findings from US20030207014A1, “Animal feed and additive for animal feed to control feed borne pathogens” (priority 2002, published 2003) are described below.

Data set [1] concerns microbes present in animal feeds. Put plainly: laboratory tests of anti-microbial action in animal feed. From the text: These properties make sodium percarbonate an ideal feed additive for animal feeds. In the preferred embodiments of the present invention sodium percarbonate is included in the feed formulations prior to the pellet forming process common to most animal feed processing procedures. […] This is due to the broad disinfection action of the sodium percarbonate upon all bacteria and the spores of bacteria, fungi, and algae.
Such mammalian animal proteins have been banned throughout Europe although they continue to be used in other parts of the world. Otherwise the animal feeds in accordance with present invention are substantially the same as conventional animal feeds with the addition of sodium percarbonate.

Data set [2] can be described thus: feeding of treated feed to livestock / poultry. Format: in vivo. The source says:
The preferred proportion of sodium percarbonate will vary for the specific animal feed composition and the specific animal consuming the feed as well as various environmental factors.

Data set [3] is described as follows: stability under pressure steam sterilization. The data set is classed as physicochemical.

SMILES strings stand for the structures.

As to `O=C([O-])[O-].O=C([O-])[O-].OO.OO.OO.[Na+].[Na+].[Na+].[Na+]` [sodium percarbonate], the “effectiveness depending on feed composition” value in data set [1] (animal feeds that do not include mammalian animal proteins) is “greatest”. Also, the anti-microbial effectiveness entry in data set [1] (laboratory tests, all bacteria and spores of bacteria, fungi, algae) was “effective against all microbes present in animal feeds”. Further, the “acceptance of treated feed” value in data set [2] (livestock) was “readily accepted”. In addition, in data set [2] (poultry, rates of 2-8% by weight in feed), the digestive reactions entry is “no untold digestive reactions”. Also, the stability entry in data set [3] was “very stable”.
